# Experimental data: ChEMBL document CHEMBL3885861, “Open TG-GATES”
# Species: Rattus norvegicus
# Assay: Open TG-GATES - Regimen: Single
# Type: toxicity, organism-based, Sprague-Dawley
# Set-up: regimen Single, gender Male, age 6 weeks
# Settings: in vivo, po, 50 mg/kg, route gavage, dose level Middle; for APTT / Bas / Eos / Fbg / Hb / Ht / Lym / MCH / MCHC / MCV / Mono / Neu / PT / Plat / RBC / Ret / WBC: tissue Blood; for KIDNEY_L / KIDNEY_R / KIDNEY_TOTAL: tissue Kidney; for LIVER: tissue Liver; for A/G / ALP / ALT / AST / BUN / CRE / Ca / Cl / DBIL / GLC / IP / K / LDH / Na / PL / RALB / TBIL / TC / TG / TP / gamma-GTP: tissue Plasma
smiles,measurement,setting,value
CC(C)C(=O)Nc1ccc([N+](=O)[O-])c(C(F)(F)F)c1 [FLUTAMIDE],TERMINAL_BW,3 h,209.6 g
same,APTT,3 h,18.6 s
same,Bas,3 h,0%
same,Eos,3 h,1%
same,Fbg,3 h,216.6 mg/dL
same,Hb,3 h,13.4 g/dL
same,Ht,3 h,39.1%
same,Lym,3 h,73.6%
same,MCH,3 h,21.5 pg
same,MCHC,3 h,34.2%
same,MCV,3 h,63 fL
same,Mono,3 h,2.8%
same,Neu,3 h,21.4%
same,PT,3 h,12.7 s
same,Plat,3 h,136.9 x10_4/uL
same,RBC,3 h,621 x10_4/ul
same,Ret,3 h,7.8%
same,WBC,3 h,82.5 x10_2/uL
same,KIDNEY_L,3 h,0.9 g
same,KIDNEY_R,3 h,0.9 g
same,KIDNEY_TOTAL,3 h,1.8 g
same,LIVER,3 h,9.6 g
same,A/G,3 h,1.7
same,ALP,3 h,785.4 IU/L
same,ALT,3 h,35.8 IU/L
same,AST,3 h,64 IU/L
same,BUN,3 h,12 mg/dL
same,CRE,3 h,0.4 mg/dL
same,Ca,3 h,10.7 mg/dL
same,Cl,3 h,103.4 meq/L
same,DBIL,3 h,0.1 mg/dL
same,GLC,3 h,199.4 mg/dL
same,IP,3 h,9.9 mg/dL
same,K,3 h,4.1 meq/L
same,LDH,3 h,168.4 IU/L
same,Na,3 h,140 meq/L
same,PL,3 h,158.6 mg/dL
same,RALB,3 h,3.5 g/dL
same,TBIL,3 h,0.2 mg/dL
same,TC,3 h,80.2 mg/dL
same,TG,3 h,86.8 mg/dL
same,TP,3 h,5.6 g/dL
same,gamma-GTP,3 h,1.2 IU/L
same,TERMINAL_BW,6 h,209.1 g
same,APTT,6 h,18.9 s
same,Bas,6 h,0%
same,Eos,6 h,0.8%
same,Fbg,6 h,220.4 mg/dL
same,Hb,6 h,13.2 g/dL
same,Ht,6 h,38.3%
same,Lym,6 h,75%
same,MCH,6 h,21.8 pg
same,MCHC,6 h,34.6%
same,MCV,6 h,63 fL
same,Mono,6 h,3.4%
same,Neu,6 h,20.4%
same,PT,6 h,13 s
same,Plat,6 h,126.7 x10_4/uL
same,RBC,6 h,608.4 x10_4/ul
same,Ret,6 h,7.8%
same,WBC,6 h,89.5 x10_2/uL
same,KIDNEY_L,6 h,1 g
same,KIDNEY_R,6 h,0.9 g
same,KIDNEY_TOTAL,6 h,1.9 g
same,LIVER,6 h,8.9 g
same,A/G,6 h,1.6
same,ALP,6 h,921.6 IU/L
same,ALT,6 h,33.4 IU/L
same,AST,6 h,68.2 IU/L
same,BUN,6 h,7.6 mg/dL
same,CRE,6 h,0.4 mg/dL
same,Ca,6 h,10.6 mg/dL
same,Cl,6 h,101.6 meq/L
same,DBIL,6 h,0.082 mg/dL
same,GLC,6 h,196 mg/dL
same,IP,6 h,9.9 mg/dL
same,K,6 h,3.9 meq/L
same,LDH,6 h,129.2 IU/L
same,Na,6 h,140 meq/L
same,PL,6 h,140.8 mg/dL
same,RALB,6 h,3.4 g/dL
same,TBIL,6 h,0.1 mg/dL
same,TC,6 h,79.6 mg/dL
same,TG,6 h,40.2 mg/dL
same,TP,6 h,5.5 g/dL
same,gamma-GTP,6 h,1.2 IU/L
same,TERMINAL_BW,9 h,207.5 g
same,APTT,9 h,18.7 s
same,Bas,9 h,0%
same,Eos,9 h,1%
same,Fbg,9 h,227 mg/dL
same,Hb,9 h,13.1 g/dL
same,Ht,9 h,38.6%
same,Lym,9 h,76.6%
same,MCH,9 h,21.9 pg
same,MCHC,9 h,34.1%
same,MCV,9 h,64.3 fL
same,Mono,9 h,3%
same,Neu,9 h,18.6%
same,PT,9 h,13 s
same,Plat,9 h,135.1 x10_4/uL
same,RBC,9 h,601.2 x10_4/ul
same,Ret,9 h,8.2%
same,WBC,9 h,75 x10_2/uL
same,KIDNEY_L,9 h,0.9 g
same,KIDNEY_R,9 h,0.9 g
same,KIDNEY_TOTAL,9 h,1.8 g
same,LIVER,9 h,8.6 g
same,A/G,9 h,1.7
same,ALP,9 h,922.4 IU/L
same,ALT,9 h,30.2 IU/L
same,AST,9 h,61.2 IU/L
same,BUN,9 h,9.8 mg/dL
same,CRE,9 h,0.3 mg/dL
same,Ca,9 h,10.3 mg/dL
same,Cl,9 h,103.8 meq/L
same,DBIL,9 h,0.088 mg/dL
same,GLC,9 h,207.4 mg/dL
same,IP,9 h,9.9 mg/dL
same,K,9 h,3.8 meq/L
same,LDH,9 h,123.2 IU/L
same,Na,9 h,140.6 meq/L
same,PL,9 h,153.2 mg/dL
same,RALB,9 h,3.4 g/dL
same,TBIL,9 h,0.2 mg/dL
same,TC,9 h,81.2 mg/dL
same,TG,9 h,53.6 mg/dL
same,TP,9 h,5.4 g/dL
same,gamma-GTP,9 h,1.2 IU/L
same,TERMINAL_BW,24 h,216.8 g
same,APTT,24 h,18.2 s
same,Bas,24 h,0%
same,Eos,24 h,1%
same,Fbg,24 h,209.6 mg/dL
same,Hb,24 h,13.7 g/dL
same,Ht,24 h,40.6%
same,Lym,24 h,77.6%
same,MCH,24 h,21.6 pg
same,MCHC,24 h,33.8%
same,MCV,24 h,63.7 fL
same,Mono,24 h,3.2%
same,Neu,24 h,17%
same,PT,24 h,12.9 s
same,Plat,24 h,132.9 x10_4/uL
same,RBC,24 h,637 x10_4/ul
same,Ret,24 h,6.7%
same,WBC,24 h,93 x10_2/uL
same,KIDNEY_L,24 h,0.9 g
same,KIDNEY_R,24 h,0.9 g
same,KIDNEY_TOTAL,24 h,1.8 g
same,LIVER,24 h,10.5 g
same,A/G,24 h,1.5
same,ALP,24 h,950.6 IU/L
same,ALT,24 h,38.2 IU/L
same,AST,24 h,65.8 IU/L
same,BUN,24 h,16 mg/dL
same,CRE,24 h,0.4 mg/dL
same,Ca,24 h,10.5 mg/dL
same,Cl,24 h,103.2 meq/L
same,DBIL,24 h,0.1 mg/dL
same,GLC,24 h,203.4 mg/dL
same,IP,24 h,6.8 mg/dL
same,K,24 h,3.8 meq/L
same,LDH,24 h,145.2 IU/L
same,Na,24 h,140.6 meq/L
same,PL,24 h,141.2 mg/dL
same,RALB,24 h,3.4 g/dL
same,TBIL,24 h,0.2 mg/dL
same,TC,24 h,80 mg/dL
same,TG,24 h,83.4 mg/dL
same,TP,24 h,5.7 g/dL
same,gamma-GTP,24 h,1 IU/L
